Molecules are shown by their SMILES.

What all share (type): cell-based
In one assay the target is T1, PPARδ (Homo sapiens, UniProt Q03181).
T1 construct: expressed in transfected cells; host or cells: CV1 (African green monkey kidney)
T1 sequence (Q03181 211-439 limits assumed): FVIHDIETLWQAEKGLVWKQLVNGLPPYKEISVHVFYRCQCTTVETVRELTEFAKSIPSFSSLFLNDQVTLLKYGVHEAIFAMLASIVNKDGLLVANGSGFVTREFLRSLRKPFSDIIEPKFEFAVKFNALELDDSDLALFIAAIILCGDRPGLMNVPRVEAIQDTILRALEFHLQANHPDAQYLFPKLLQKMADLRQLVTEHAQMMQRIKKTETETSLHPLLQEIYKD
Put plainly: PPARδ reporter (CTF)/functional assay in CV1 cells. Conditions: examined up to 10 μM; efficacy <20% considered negative. The text has this:
(§1) Because GPR-40 is known to be activated by ligands to PPARγ, exemplified compounds are examined in PPARα, PPARδ, and PPARγ reporter assays to determine the selectivity of an exemplified compound. CV1 cells, which are derived from the renal tissue of an African green monkey, are transfected with various receptor and reporter plasmids using Fugene. For the PPARα and PPARδ assays, a reporter plasmid containing five tandem copies of the yeast transcription protein Gal4 response element, cloned upstream of a firefly luciferase gene driven by the major late promoter of adenovirus, is transfected together with a Simian Virus 40 (SV40) driven plasmid constitutively expressing a hybrid protein containing the Gal4 DNA binding domain (DBD), and either the PPARα or PPARδ ligand binding domain. For the PPARγ assay, plasmids encoding PPARγ and RXRα, both driven by a cytomegalovirus (CMV) promoter are transfected together with a plasmid containing luciferase reporter cDNA driven by the TK promoter and a receptor response element (2×PPRE). […] After 24 hours incubation with compound, cells are lysed and luciferase activity is determined as a measure of receptor activation by luminescence. […] The maximum percent stimulation is determined versus maximum stimulation obtained with 10 μM of an appropriate PPAR agonist reference compound. […]

For the next assay, the target named is T2, PPARγ (Homo sapiens, UniProt P37231).
T2 construct: expressed in transfected cells; host or cells: CV1 (African green monkey kidney)
T2 sequence (P37231 1-505): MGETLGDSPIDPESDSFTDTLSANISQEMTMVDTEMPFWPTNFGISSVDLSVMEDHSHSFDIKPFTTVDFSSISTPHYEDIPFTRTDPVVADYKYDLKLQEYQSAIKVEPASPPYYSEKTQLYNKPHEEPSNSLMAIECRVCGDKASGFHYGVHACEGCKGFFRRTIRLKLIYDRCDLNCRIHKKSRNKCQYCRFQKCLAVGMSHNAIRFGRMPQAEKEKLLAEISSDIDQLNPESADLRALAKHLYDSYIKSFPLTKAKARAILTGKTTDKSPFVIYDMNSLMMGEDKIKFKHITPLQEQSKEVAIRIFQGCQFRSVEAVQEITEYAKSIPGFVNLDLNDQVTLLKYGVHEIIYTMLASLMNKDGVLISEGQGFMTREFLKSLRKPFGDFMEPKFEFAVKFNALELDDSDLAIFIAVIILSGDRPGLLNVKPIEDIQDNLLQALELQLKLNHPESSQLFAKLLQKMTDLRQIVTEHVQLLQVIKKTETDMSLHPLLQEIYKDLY
T2 sequence (P19793 1-462 partner): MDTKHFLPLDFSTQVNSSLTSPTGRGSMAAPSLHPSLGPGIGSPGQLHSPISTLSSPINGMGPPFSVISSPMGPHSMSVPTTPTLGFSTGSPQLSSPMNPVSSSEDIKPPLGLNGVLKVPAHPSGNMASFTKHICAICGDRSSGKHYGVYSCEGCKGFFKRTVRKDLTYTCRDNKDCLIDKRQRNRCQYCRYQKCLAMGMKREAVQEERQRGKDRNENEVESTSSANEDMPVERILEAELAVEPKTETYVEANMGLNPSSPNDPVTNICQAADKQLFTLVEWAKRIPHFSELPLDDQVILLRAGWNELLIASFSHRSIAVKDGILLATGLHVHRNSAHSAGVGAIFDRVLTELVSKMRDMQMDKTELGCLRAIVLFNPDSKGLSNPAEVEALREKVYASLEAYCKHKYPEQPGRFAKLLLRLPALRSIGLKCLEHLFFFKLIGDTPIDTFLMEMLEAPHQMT
The experiment in a line: PPARγ reporter (CTF)/functional assay in CV1 cells.
Text: as §1

The next assay deals with T3, hGPR-40 (hFFAR1) (Homo sapiens, UniProt O14842).
T3 construct: host or cells: HEK293
Put plainly: Human beta-arrestin agonist assay with 1% FBS. The text has this:
(§2) Human embryonic kidney (hEK293)-hFFAR1 cells are purchased from DiscoveRx™. Human osteosarcoma (U2OS) cells expressing mFFAR1 are developed by DiscoveRX™. These cells co-express the Prolink™ (PK)-tagged GPR-40 and the Enzyme Acceptor™ (EA)-tagged beta-arrestin fusion proteins. If activation of the GPR-40 stimulates beta-arrestin recruitment, it would force complementation of the beta galactosidase (B-gal) enzyme fragments, forming a B-gal enzyme that generates a chemiluminescent signal using the DiscoveRx PathHunter™ detection kit. Cells are incubated overnight at 5,000 cells/well in 384 well plates in culture media containing 1% FBS (fetal bovine serum). Serial diluted compound in DMSO (2× dilutions to generate 20 concentrations) are step down diluted in culture media containing 1% FBS (fetal bovine serum) and added to cells with a final top concentration starting of 100 μM. After addition of compound, cells are incubated for 90 min at 37° C. in 5% CO2 incubator, and DiscoveRX™ kit detection reagents are added. Measurement of the chemiluminescent signal is ascertained with the Envision™ reader, after a 1-hour incubation at room temperature. Data are fit to a 4 parameter-fit logistics to determine EC50 values, % activity is measured versus maximum response to an internal standard GPR-40 agonist at 1 μM.

The target of the next assay is T4, mGPR-40 (mFFAR1) (Mus musculus, UniProt Q76JU9).
T4 construct: host or cells: U2OS
The experiment in a line: Mouse beta-arrestin agonist assay with 1% FBS.
Text: as §2

The mark [1] stands for this setting: versus internal standard GPR-40 agonist at 1 μM.

T4 sequence (Q76JU9 whole entry): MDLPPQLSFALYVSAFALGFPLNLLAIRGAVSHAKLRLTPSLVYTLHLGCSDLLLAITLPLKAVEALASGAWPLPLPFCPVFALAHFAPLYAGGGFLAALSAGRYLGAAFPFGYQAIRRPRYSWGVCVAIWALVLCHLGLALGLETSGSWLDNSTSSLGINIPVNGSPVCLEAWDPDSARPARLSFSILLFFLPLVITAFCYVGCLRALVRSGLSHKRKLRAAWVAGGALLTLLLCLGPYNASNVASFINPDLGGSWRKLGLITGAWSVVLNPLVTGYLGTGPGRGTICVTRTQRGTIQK
T4 sequence (P32121 whole entry partner): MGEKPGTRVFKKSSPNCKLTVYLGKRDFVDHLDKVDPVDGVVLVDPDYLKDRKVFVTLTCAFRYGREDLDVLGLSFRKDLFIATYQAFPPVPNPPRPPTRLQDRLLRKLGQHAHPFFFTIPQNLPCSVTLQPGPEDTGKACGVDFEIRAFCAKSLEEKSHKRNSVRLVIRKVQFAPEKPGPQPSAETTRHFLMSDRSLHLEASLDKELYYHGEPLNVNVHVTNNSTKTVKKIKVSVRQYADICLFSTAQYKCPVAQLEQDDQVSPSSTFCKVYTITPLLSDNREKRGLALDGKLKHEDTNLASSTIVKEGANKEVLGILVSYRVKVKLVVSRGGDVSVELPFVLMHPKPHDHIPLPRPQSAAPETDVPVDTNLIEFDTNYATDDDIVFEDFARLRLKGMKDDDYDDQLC
T3 sequence (O14842 whole entry): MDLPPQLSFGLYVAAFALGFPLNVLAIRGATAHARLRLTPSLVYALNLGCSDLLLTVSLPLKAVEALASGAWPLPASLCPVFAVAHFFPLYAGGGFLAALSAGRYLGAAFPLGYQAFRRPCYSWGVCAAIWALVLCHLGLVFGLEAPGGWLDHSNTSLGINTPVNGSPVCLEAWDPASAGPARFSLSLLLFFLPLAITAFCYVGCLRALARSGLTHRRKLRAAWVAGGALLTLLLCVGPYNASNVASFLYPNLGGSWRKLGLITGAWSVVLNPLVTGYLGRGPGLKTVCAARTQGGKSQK
T3 sequence (P32121 whole entry partner): as the sequence (P32121 whole entry partner) above

As a reminder, the EC50 is the midpoint of the concentration-response curve. Consider `CC#C[C@@H](CC(=O)O)c1ccc(OCc2ccc3nc(-c4c(C)cccc4C)nn3c2)cc1` [Example 1, (3S)-3-[4-[[2-(2,6-Dimethylphenyl)-[1,2,4]triazolo[1,5-a]pyridin-6-yl]methoxy]phenyl]hex-4-ynoic acid], for which the “functional activation of PPARδ” value at PPARδ is given as “No functional activation”. The EC50 at PPARγ (CV1 cells, luciferase reporter, 24 hours) was found to be 2600 nM; on hGPR-40 (hFFAR1) (hEK293-hFFAR1 cells, 1% FBS, 90 min, read-out: hGPR-40 b-arrestin EC50), 44.8 nM; on mGPR-40 (mFFAR1) (U2OS cells expressing mFFAR1, 1% FBS, 90 min, read-out: mGPR-40 b-arrestin EC50), 3.63 nM. At PPARγ (CV-1, versus 10 μM PPAR agonist reference compound, <20% considered negative, read-out: % efficacy in PPARγ CTF assay), the Emax came out at 17%. The “hGPR-40 b-arrestin % stimulation max (FA)” value on hGPR-40 (hFFAR1) (setting [1]) amounted to 128%. In addition, on mGPR-40 (mFFAR1) (setting [1]), the “mGPR-40 b-arrestin % stimulation max (FA)” value amounted to 153%.

The values above are taken from US9120793B2, “Triazolo-pyridine compound” (Eli Lilly and Company, priority 2013, dated 2015).
